# Experimental data published in US12076329B2, “Compositions and methods for enhancing visual function” (The Regents of the University of California, priority 2020, dated 2024).
# “Also recorded” adds a separate entry of the source.
# B1: medium wave cone opsin: medium wave (MW) cone opsin expressed in RGCs of rd1 mice, comparator light-activated GPCR (protein, UniProt O35599 1-359, looked up)
# Medium-wave-sensitive opsin 1: MAQRLTGEQTLDHYEDSTHASIFTYTNSNSTKGPFEGPNYHIAPRWVYHLTSTWMILVVVASVFTNGLVLAATMRFKKLRHPLNWILVNLAVADLAETIIASTISVVNQIYGYFVLGHPLCVIEGYIVSLCGITGLWSLAIISWERWLVVCKPFGNVRFDAKLATVGIVFSWVWAAIWTAPPIFGWSRYWPYGLKTSCGPDVFSGTSYPGVQSYMMVLMVTCCIFPLSIIVLCYLQVWLAIRAVAKQQKESESTQKAEKEVTRMVVVMVFAYCLCWGPYTFFACFATAHPGYAFHPLVASLPSYFAKSATIYNPIIYVFMNRQFRNCILHLFGKKVDDSSELSSTSKTEVSSVSSVSPA
# How the values were obtained:
# CLIP-mGluR2 = biological target: T1, CLIP-mGluR2 (Rattus norvegicus, UniProt P31421); assay: Photoactivation of CLIP-mGluR2, whole cell patch clamp in HEK 293T cells; format: cell-based
# T1 construct: expressed in transfected cells; host or cells: HEK 293T
# T1 sequence (P31421 with tags, fused parts or gaps): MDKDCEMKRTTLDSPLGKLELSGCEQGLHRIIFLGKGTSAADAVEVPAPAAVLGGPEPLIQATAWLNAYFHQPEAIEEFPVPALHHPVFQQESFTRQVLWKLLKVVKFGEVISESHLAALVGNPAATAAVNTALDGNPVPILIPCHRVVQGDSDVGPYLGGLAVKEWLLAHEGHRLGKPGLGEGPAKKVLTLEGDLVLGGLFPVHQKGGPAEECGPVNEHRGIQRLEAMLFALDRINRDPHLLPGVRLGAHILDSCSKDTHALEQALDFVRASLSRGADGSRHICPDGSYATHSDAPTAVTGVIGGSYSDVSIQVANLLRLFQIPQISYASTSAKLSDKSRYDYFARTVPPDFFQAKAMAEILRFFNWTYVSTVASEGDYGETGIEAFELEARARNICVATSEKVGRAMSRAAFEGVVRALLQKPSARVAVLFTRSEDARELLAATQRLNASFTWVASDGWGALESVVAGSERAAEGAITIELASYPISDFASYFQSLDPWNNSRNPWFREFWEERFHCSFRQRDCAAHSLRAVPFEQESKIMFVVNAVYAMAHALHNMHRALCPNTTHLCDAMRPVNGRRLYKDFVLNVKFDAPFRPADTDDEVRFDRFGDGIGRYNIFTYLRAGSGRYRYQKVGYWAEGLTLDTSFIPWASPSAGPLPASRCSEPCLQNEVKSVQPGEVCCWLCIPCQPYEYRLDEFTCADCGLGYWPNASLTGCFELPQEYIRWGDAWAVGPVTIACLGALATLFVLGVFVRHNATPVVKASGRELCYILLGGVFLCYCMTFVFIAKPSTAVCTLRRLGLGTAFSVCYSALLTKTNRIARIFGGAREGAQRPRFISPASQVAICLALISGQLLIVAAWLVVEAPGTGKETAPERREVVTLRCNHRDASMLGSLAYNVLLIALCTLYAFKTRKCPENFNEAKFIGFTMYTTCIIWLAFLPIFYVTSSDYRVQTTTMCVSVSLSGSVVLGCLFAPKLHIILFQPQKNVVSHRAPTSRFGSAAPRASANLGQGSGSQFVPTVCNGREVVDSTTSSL
# Procedure: (§1) Whole cell patch clamp recordings from HEK 293T cells were performed 24-48 hours after transfection as previously described (Farrants et al., 2018). Briefly, voltage clamp recordings at −60 mV were performed in a high potassium (120 mM) solution to enable large inward currents upon receptor activation.
# (§2) Unless otherwise noted, cells were incubated with 1-10 μM of PORTL for 45-60 min at 37° C. in the appropriate extracellular recording solution. Labeling efficiency was determined as previously described (Levitz et al., 2017). Illumination was applied to the entire field of view using a CoolLED pE-4000 through a 40× objective. Light intensity in the sample plane was 1-2 mW/mm^2. pClamp software was used for both data acquisition and control of illumination. All drugs were purchased from Tocris and applied using a gravity-driven perfusion system.
# SNAP-mGluR2 = biological target: T2, SNAP-mGluR2 (Rattus norvegicus, UniProt P31421); assay: Photoactivation of SNAP-mGluR2 read out as GIRK current, whole cell patch clamp in HEK293 cells; format: cell-based; details: specificity: applied to cells expressing SNAP-mGluR2, n=3 cells
# T2 construct: expressed in transfected cells; host or cells: HEK293 / HEK 293T, with co-expressed GIRK channel
# T2 sequence (P31421 with tags, fused parts or gaps): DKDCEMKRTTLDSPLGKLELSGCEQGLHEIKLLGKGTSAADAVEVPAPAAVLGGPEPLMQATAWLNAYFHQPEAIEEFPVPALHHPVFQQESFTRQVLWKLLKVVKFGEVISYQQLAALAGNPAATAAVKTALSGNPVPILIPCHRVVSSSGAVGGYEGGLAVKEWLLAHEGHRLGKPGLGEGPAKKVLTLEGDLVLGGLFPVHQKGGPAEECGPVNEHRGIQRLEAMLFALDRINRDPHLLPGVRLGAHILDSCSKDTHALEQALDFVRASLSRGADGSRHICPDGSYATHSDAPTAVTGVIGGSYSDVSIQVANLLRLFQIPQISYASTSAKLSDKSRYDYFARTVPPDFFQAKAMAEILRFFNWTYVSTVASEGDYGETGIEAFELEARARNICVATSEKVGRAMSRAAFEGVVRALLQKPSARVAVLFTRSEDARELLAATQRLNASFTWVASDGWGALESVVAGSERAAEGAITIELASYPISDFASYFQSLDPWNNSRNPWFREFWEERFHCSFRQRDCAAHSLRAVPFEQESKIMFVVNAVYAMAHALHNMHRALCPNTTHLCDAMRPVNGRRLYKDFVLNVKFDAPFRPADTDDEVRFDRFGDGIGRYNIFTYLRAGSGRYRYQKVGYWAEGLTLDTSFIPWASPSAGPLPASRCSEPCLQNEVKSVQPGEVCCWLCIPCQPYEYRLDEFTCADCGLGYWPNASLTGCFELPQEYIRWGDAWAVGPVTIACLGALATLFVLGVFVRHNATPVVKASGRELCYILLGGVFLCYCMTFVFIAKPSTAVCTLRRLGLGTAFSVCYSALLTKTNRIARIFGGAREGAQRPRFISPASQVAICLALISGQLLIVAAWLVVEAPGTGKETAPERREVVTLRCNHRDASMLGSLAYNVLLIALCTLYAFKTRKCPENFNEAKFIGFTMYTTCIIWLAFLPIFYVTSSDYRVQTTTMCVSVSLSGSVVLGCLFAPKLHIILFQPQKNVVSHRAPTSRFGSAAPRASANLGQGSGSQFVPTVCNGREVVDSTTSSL
# Procedure: as §1, §2
# FIG. 3A-3C. Monovalent BGAG12,460 elicits rat SNAP-mGluR2 and human SNAP-mGluR6 GIRK photo-current in HEK293 cells. FIG. 3A. Group II and III mGluRs, like mGluR2 and 6, respectively, couple to GIRK channels in neurons and this system reconstitutes in non-neuronal cell lines, so that SNAP-mGluR2 or 6 coupled to a BGAG photoswitch will be activated by light and induce hyperpolarizing GIRK current. FIG. 3B. Blue (460 nm) light photo-activates BGAG12,460:SNAP-mGluR2 and elicits an inward K+ current from co-expressed GIRK channel in a HEK293 cell voltage clamped at −60 mV with [K+]in=[K+]out=150 mM. FIG. 3C.
# FIG. 4A-4D. Multibranched BGAG12,460 increases potency and sensitivity of SNAP-mGluR2 activation of GIRK channels in HEK293 cells. FIG. 4A. ^4×BGAG12,460 consists of a single BG end for 1:1 attachment to SNAP on each subunit of the mGluR and 4 branches of a 12-PEG linker, with each branch bearing a photoswitchable azobenzene-glutamate (AG). FIG. 4B. […] Dependence of SNAP-mGluR2 photo-activation efficiency, read out as GIRK current, with single, 2-branch and 4-branch BGAG12,460. […]
# Halo-mGluR2 = biological target: T3, Halo-mGluR2 (Rattus norvegicus, UniProt P31421); assay: Photoactivation and labeling of Halo-mGluR2, whole cell patch clamp in HEK 293T cells; format: cell-based
# T3 construct: expressed in transfected cells; host or cells: HEK 293T
# T3 sequence (P31421 with tags, fused parts or gaps): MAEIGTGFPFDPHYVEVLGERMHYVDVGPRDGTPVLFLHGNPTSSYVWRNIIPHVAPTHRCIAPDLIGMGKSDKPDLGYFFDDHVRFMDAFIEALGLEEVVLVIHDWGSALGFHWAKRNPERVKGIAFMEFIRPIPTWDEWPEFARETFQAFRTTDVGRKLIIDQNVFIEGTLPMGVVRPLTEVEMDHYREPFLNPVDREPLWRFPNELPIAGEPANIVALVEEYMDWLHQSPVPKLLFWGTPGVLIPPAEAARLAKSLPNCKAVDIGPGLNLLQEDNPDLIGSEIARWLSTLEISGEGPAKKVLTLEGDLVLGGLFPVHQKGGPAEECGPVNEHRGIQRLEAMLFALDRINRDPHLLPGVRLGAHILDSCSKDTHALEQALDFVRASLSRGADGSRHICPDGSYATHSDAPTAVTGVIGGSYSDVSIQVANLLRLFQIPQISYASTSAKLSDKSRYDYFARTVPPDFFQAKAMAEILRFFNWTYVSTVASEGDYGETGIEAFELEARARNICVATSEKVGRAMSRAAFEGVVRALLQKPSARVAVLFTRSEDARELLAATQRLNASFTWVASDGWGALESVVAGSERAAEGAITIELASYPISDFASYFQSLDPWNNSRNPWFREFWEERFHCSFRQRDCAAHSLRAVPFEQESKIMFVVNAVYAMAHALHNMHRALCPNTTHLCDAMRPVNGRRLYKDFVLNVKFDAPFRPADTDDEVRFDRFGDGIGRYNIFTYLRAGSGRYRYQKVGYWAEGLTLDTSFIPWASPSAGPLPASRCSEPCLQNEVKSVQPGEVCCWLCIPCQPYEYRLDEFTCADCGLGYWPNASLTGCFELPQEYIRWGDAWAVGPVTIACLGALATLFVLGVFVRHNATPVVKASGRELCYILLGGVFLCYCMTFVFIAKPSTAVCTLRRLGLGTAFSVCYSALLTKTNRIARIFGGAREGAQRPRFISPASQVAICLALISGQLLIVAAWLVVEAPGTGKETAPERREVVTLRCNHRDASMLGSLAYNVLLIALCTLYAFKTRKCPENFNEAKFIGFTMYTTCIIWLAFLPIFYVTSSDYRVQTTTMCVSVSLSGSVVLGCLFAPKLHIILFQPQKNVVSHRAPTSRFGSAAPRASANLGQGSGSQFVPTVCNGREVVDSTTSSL
# Procedure: as §1, §2
# With the goal of further expanding the repertoire of PORTLs to a third self-labelling, orthogonal suicide enzyme, the Halo-tag, which reacts specifically with alkyl chlorides (Los et al., 2008), was used. […] Based on the hypothesis that branching Halo-targeting PORTLs would enhance photoswitching, “doubleClAG12” (^2×ClAG12) (Scheme S8 (FIG. 1H); FIG. 2E) was synthesized. […]
# GFP-tagged mGluR2 = assay: Nanobody-photoswitch conjugate (NPC)-mediated photoswitching of GFP-tagged mGluR2; format: cell-based; details: SNAP-tagged anti-GFP nanobody labeled with PORTL
# Source text: Finally, a long-term goal of tethered photopharmacology is to incorporate the optical control afforded by such compounds into antibody-mediated targeting of proteins. “Nanobody-photoswitch conjugates” (NPCs) consisting of a SNAP-tagged nanobody labeled with a PORTL have been reported. NPCs containing an anti-GFP nanobody are able to photoactivate GFP-tagged mGluR2, but with limited efficiency (Farrants et al., 2018).
# [1] = tested on: RGCs from isolated rd1 retina; assay: MEA recordings of RGCs from isolated rd1 retina; format: cell-based, mouse; details: 1 s light flashes
# Source text: FIG. 10A-10C. MEA recordings of RGCs from isolated rd1 retina with either BGAG12,460:SNAP-mGluR2 or medium wave cone opsin in RGCs. A) Superimposed average responses to 1 s light flashes in dozens of RGCs in 3 representative retinas isolated from: wildtype mice (Wt; red), rd1 mice expressing medium wave (MW) cone opsin in RGCs (black), and rd1 mice expressing SNAP-mGluR2 in RGCs (blue) following intravitreal injection of BGAG12,460. […] B) Blue light activation of BGAG12,460:SNAP-mGluR2 evokes an immediate inhibition with a sustained amplitude during illumination, followed by a transient excitatory rebound after termination of illumination. […] As light pulses are shortened, the delay to peak response increases and deactivation slows, (from (Berry et al. (2019) supra).
# [2] = tested on: rd1 animals expressing medium wave cone opsin in RGCs; details: Berry et al. (2019); cited from earlier work
# [3] = tested on: rd1 animals expressing medium wave cone opsin in RGCs; assay: Line pattern recognition in moving displays, medium wave cone opsin in RGCs; format: in vivo, mouse; details: expressed in RGCs of rd1 animals
# Source text: The kinetics of onset, decay and recovery of the restored light response are expected to affect the ability to recognize a visual pattern. […] Thus, the speed limit of ^4×BGAG12,460:SNAP-mGluR2 in RGCs is ≥8 cm/s, whereas that of medium wave cone opsin in RGCs is ≤4 cm/s.
molecule,measurement,setting,value
Nc1ccnc(OCc2ccc(CNC(=O)CCC(=O)N3Cc4ccccc4-c4nnn(CCOCCOCCOCCOCCOCCOCCOCCOCCOCCOCCOCCOCCC(=O)N[C@H](CCC(=O)NCC(=O)Nc5ccc(/N=N/c6ccc(NC(=O)CCC[C@@H](C[C@H](N)C(=O)O)C(=O)O)cc6)cc5)C(=O)NCC(=O)Nc5ccc(/N=N/c6ccc(NC(=O)CCC[C@@H](C[C@H](N)C(=O)O)C(=O)O)cc6)cc5)c4-c4ccccc43)cc2)n1 [^2×BCAG12],optical control / efficiency of photoactivation of CLIP-mGluR2,CLIP-mGluR2,near-complete optical control; also recorded: enhances efficiency of CLIP-mGluR2 photoactivation compared to BCAG12
same,photocurrent relative to 1 mM glutamate,SNAP-mGluR2,2.8±0.3%
"N[C@@H](C[C@H](CCCC(=O)Nc1ccc(/N=N/c2ccc(NC(=O)CNC(=O)CCOCCOCCOCCOCCOCCOCCOCCOCCOCCOCCOCCOCCNC(=O)CCCC(=O)NCCOCCOCCCCCCCl)cc2)cc1)C(=O)O)C(=O)O [ClAG12, (2S,4S)-2-Amino-4-(4-((4-((E)-(4-(61-chloro-4,44,48-trioxo-7,10,13,16,19,22,25,28,31,34,37,40,52,55-tetradecaoxa-3,43,49-triazahenhexacontanamido)phenyl)diazenyl)phenyl)amino)-4-oxobutyl)pentanedioic acid]",photoactivation of Halo-mGluR2,Halo-mGluR2,showed photoactivation of mGluR2
Nc1nc(OCc2ccc(CNC(=O)CCCC(=O)NCCOCCOCCOCCOCCOCCOCCOCCOCCOCCOCCOCCOCCC(=O)N[C@H](CCC(=O)NCC(=O)Nc3ccc(/N=N/c4ccc(NC(=O)CCC[C@@H](C[C@H](N)C(=O)O)C(=O)O)cc4)cc3)C(=O)NCC(=O)Nc3ccc(/N=N/c4ccc(NC(=O)CCC[C@@H](C[C@H](N)C(=O)O)C(=O)O)cc4)cc3)cc2)c2nc[nH]c2n1 [^2×BGAG12],photoswitch efficiency of NPC-mediated photoswitching of mGluR2,GFP-tagged mGluR2,doubled the photoswitch efficiency
B1,latency of RGC response to light onset,[1],delayed response
same,line pattern recognition when the displays move at 1 cm/s,[2],perform well
same,line pattern recognition when the display moved at 4 cm/s,[3],performed at the level of the untreated rd1 animals
same,speed limit of line pattern recognition in moving displays,[3],≤ 4 cm/s
